Assay results from US8948863B2, “Photokinetic ocular drug delivery methods and apparatus” (priority 2009, dated 2015).

How the values were obtained:
[1] = rabbit
Text: Exogenous human insulin can be differentiated from the endogenous rabbit insulin; the human insulin FITC (fluorescein isothiocyanate) fluorescent tag further allows for tracking of the drug within the tissues.
In this series, rabbits were fitted with transscleral photokinetic device, such as shown in FIG. 1 of this disclosure, for one hour. […] Images were taken of the posterior optic disc, the area where the retina, optic nerve and blood vessels come together on the posterior segment of the eye.

[2] = Photokinetic transdermal permeation study; assay type: in vitro ADME, human; details: similar photokinetic conditions
Text: Scleral tissue is more permeable than human skin. The practical upper molecular weight limit with the PODD system is unknown and may be determined by the specific molecular configuration rather than molecular weight per se.

[3] = Histological examination of Franz cell mounted sclera after PODD exposure; set-up: species or system ovine; details: MTX formulation, 60 minute exposure, 350 nm LED light
Procedure: Sclera samples were taken and placed in formalin as follows: Normal control sclera with no exposure to drug or light, Franz cell 60 minute control drug only exposure and Franz cell 60 minute exposure to both drug and 350 nm LED light. Fixed slides were evaluated for structural integrity and gross appearance by a pathologist blinded as to the origin of the sample tissue.
Normal control sclera with no exposure to drug or light, Franz cell 60 minute control drug only exposure and Franz cell 60 minute exposure to both drug and 350 nm LED light were taken and placed in formalin. Fixed slides were evaluated for structural integrity and gross appearance by a pathologist masked as to the origin of the sample tissue.

[4] = Franz cell sclera tissue permeation, PODD (pulsed LED light) vs passive controls; details: for levels of MTX recovered from Franz recipient cell: p<0.05 vs passive controls
Procedure: A traditional “up and down” vertical Franz cell skin perfusion apparatus as described above was adapted and used for this sclera tissue permeation model. […] Two wavelengths of light were selected of this facilitated permeation study. Samples of the Franz recipient solution were taken at 15, 30 and 60 minutes of photokinetic exposure and passive controls and analyzed by HPLC.
Franz cells (PermeGear, Inc, Bethlehem Pa.) having an 11.28 mm diameter permeation area, 1.0 cm^2 were used in the MTX experiment. A photokinetic ocular drug delivery (PODD)-modified Franz cell testing device was configured so that it accommodated the placement of LEDs within the donor chamber. The cells were placed within an aluminum block heater 35.5° C. on a magnetic stir bar setup (Custom manufactured by PermeGear, Inc, Bethlehem Pa.).
Discrete wavelength LEDs were purchased from Roithner Lasertechnick GmbH, Vienna, Austria as follows: 351 nm, #RTL350-30; 370 nm, #RLS-UV370. Peak emitting wavelengths are ±10 nm at the 50% radiance output. The LEDs were driven by a square wave pulse generator built by the investigators for this study. The adjustable square wave pulse generator provided pulsed electrical energy set at 24 cycles per second (CPS) with a 50% pulse duration (ON 50%, OFF 50% of the time). Driver current to the LEDs was limited to or slightly below the manufacturers specified drive current level to avoid exogenous heat generation. […] A donor cell contains the test drug (in this example, methotrexate (MTX)) in a solvent formulation. The recipient cell is filled with a balance salt solution. Samples for chemical analysis are taken from the side arm 27 of the Franz apparatus as discussed above. Control cells are set up the same, but without the LED. LEDs are driven by a square wave pulse generator (not shown) at a voltage slightly less than the manufacture's specified voltage.
Ovine eyes were procured by enucleation within one hour after euthanasia and placed in tissue culture medium with antibiotics and antimycotics and refrigerated at 4° C. Sclera tissue was dissected from the eyes and placed between the donor and recipient chambers of the Franz apparatus. Sclera was stored for a maximum of 30 hours in the tissue culture at 4° C. before the start of the experiment.
Methotrexate (MTX; (4-Amino-10-methylfolic acid hydrate); available from Sigma-Aldrich Corp., St. Louis, Mo.) was dissolved in a permeation enhancement carrier of water, 30% propylene glycol, 5% Ethyl Lactate, 0.1% Azone, and 0.75% hyaluronic acid as a gelling agent, with 0.1% neolone 850 as a preservative. An infinite donor sink model was used wherein 0.75 grams of the drug formulation (1.875 mg of each) was placed in the Franz donor cells. Hanks isotonic salt solution served as the Franz recipient cell fluid.
HPLC analysis was performed according to a method developed in our lab. Briefly, a Beckman Coulter system consisting of 125 pumps, 508 auto sampler and 168 diode array detector was used with an XTerra RP-C18, 150×40 mm, 3 μm column. The analytes were eluted with a gradient mobile phase from 25-30% Methanol in HPLC grade water with 0.1% Trifluoroacetic Acid (TFA) and flow rate of 0.7 ml/min. 32 Karat™ software (Beckman Coulter, Inc.) was used for acquisition of chromatograms.
The Franz recipient cell balanced salt solution was analyzed by the HPLC method for MTX concentration.

FITC-labeled human insulin: human insulin modified at the N-terminus of the B-chain with an FITC conjugate/tag, 5733 Daltons, Invitrogen
fluorescence in the optic disc, passive permeation [1]: did not show fluorescence | fluorescence image of the optic disc after 1 hour of PODD ([1]; in vivo): reached the posterior segment of the rabbit's eye | fluorescence, contralateral eye ([1]; in vivo): no fluorescence

hyaluronic acid
flux rates through intact human skin [2]: significant flux rates

CN(Cc1cnc2nc(N)nc(N)c2n1)c1ccc(C(=O)N[C@@H](CCC(=O)O)C(=O)O)cc1 [MTX, 4-Amino-10-methylfolic acid hydrate]
histological examination, PODD exposure compared to passive control and normal sclera [3]: no differences between the samples | structural integrity of the sclera [3]: grossly intact and undamaged | levels of MTX recovered from Franz recipient cell ([4]; PODD 350 nm group, 24 CPS, 30 and 60 minute time points): significant | levels of MTX recovered from Franz recipient cell ([4]; PODD 370 nm group, 24 CPS, 15, 30 and 60 minute time points): significant | total MTX flux (compared with the therapeutic level) ([4]; PODD, up to 60 minutes, 1.0 cm^2 ovine sclera): < 400 µg | flux rate, 370 nm group compared to the 350 nm group ([4]; all time points (15, 30, 60 minutes), 24 CPS): much higher flux rate | MTX permeation through the scleral tissue, PODD cells ([4]; both wavelengths of light tested (350 nm and 370 nm), 24 CPS, vs passive controls): improvement
